Assay results published in US11540518B2, “Fungicidal oxadiazoles” (FMC Corporation, priority 2017, dated 2023).

How the values were obtained:
Assay type in all cases: in vivo
Phakopsora pachyrhizi = experiment: Test A: Asian soybean rust control on soybean seedlings; conditions: 250 ppm, sprayed to run-off on soybean seedlings, inoculated the following day; 100 = 100% disease control, 0 = no control
In short: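 Compounds in acetone/water (50/50) with 250 ppm PEG400 were sprayed to run-off on soybean seedlings, which were inoculated with P. pachyrhizi spores the next day. Plants were held in saturated atmosphere at 22° C for 24 h, then 8 days at 22° C, before visual rating (0–100% disease control vs controls).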

Zymoseptoria tritici = experiment: Test B: wheat leaf blotch control on wheat seedlings; conditions: 250 ppm (incl. values marked * = tested at 250 ppm), sprayed to run-off on wheat seedlings, inoculated the following day; 100 = 100% disease control, 0 = no control
[1] = tested on: Puccinia recondita f. sp. tritici; experiment: Test C: wheat leaf rust control on wheat seedlings; conditions: 250 ppm, sprayed to run-off on wheat seedlings, inoculated the following day; 100 = 100% disease control, 0 = no control
In short: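 Wheat seedlings were sprayed to run-off with compound suspension (ppm, acetone/water with 250 ppm PEG400), then inoculated with Puccinia recondita f. sp. tritici spores the next day. Plants were held 24 h in saturated atmosphere at 20 °C, then 6 days in a 20 °C growth chamber. Disease control is rated 0-100% relative to untreated controls.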

Row | Compound | Test A disease control rating (Phakopsora pachyrhizi) | Test B disease control rating (Zymoseptoria tritici) | Test C disease control rating [1]
1 | Cc1ccc(C(OC(N)=O)c2ccc(-c3noc(C(F)(F)F)n3)cc2)cc1 (stereo not drawn) [Compound 143] | 100% | 69% | 100%
2 | CNC(=O)OC(c1ccc(C)cc1)c1ccc(-c2noc(C(F)(F)F)n2)cc1 (stereo not drawn) [Compound 144] | 100% | 0% | 100%
3 | CCNC(=O)OC(c1ccc(C)cc1)c1ccc(-c2noc(C(F)(F)F)n2)cc1 (stereo not drawn) [Compound 145] | 100% | 28% | 98%
4 | C=C(C)CNC(=O)OC(c1ccc(C)cc1)c1ccc(-c2noc(C(F)(F)F)n2)cc1 (stereo not drawn) [Compound 146] | 100% | 21% | 97%
